Data on 6 molecules can be found in US4952580A, “Pesticidal polyhaloalkene derivatives” (priority 1988, dated 1990).

The subject of data set [1] is root-knot nematode. As to the kind of experiment: Soil Mobility against root-knot nematode. The class given is in vivo, Meloidogyne incognita. Conditions: 336 h. An outline of the steps: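 Soil mobility of the nematicidal test material was evaluated by placing treated, nematode-infested soil in 8 cm plastic pots stacked above two or more pots of untreated infested soil, each containing a 10 cm^3 sand layer and filter paper discs. Fifteen cm of water was dripped through, pots drained 16-18 hours, then were planted with cucumber or tomato seedlings and scored for Percent Control.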

In data set [2] the test system is stunt nematode. Put plainly: Stunt Nematode Test. The class given is in vivo. Conditions: 672 h, Table 4a; rate 5 ppm; read-out: Percent Control.
For data set [3], the system named is lesion nematode. Put plainly: Lesion Nematode Test. It is filed as in vivo. The following applies: Table 5, read-out: Percent Control; for pest or weed control at 2.5 ppm: rate 2.5 ppm. In outline:
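Run as the stunt nematode test but on pea seedlings; compounds applied as dust formulations (initial and residual activity) or acetone/water formulations (systemic activity), with untreated samples as reference. Percent control derived by formula.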

Data set [4] concerns root-knot nematode (Meloidogyne incognita). As to the kind of experiment: Initial Root-Knot Nematicidal Activity. The class given is in vivo. Conditions: 336 h, read-out: Percent Control; for pest or weed control at 0.078 ppm: Table 2, Application Rate 0.078 ppm; for pest or weed control at 0.156 ppm: Table 2, Application Rate 0.156 ppm; for pest or weed control at 0.625 ppm: Table 2, Application Rate 0.625 ppm; for pest or weed control at 1.25 ppm: Table 2, Application Rate 1.25 ppm; for pest or weed control at 2.5 ppm: Table 2, Application Rate 2.5 ppm. An outline of the steps: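 Compound incorporated into Meloidogyne incognita-infested soil at 10 ppm to 0.078 ppm, then planted with tomato or cucumber seedlings. Root galling scored two weeks after planting as a knot index and converted to percent control, given as averages.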

Data set [5] has as its system root-knot nematode. As to the kind of experiment: Residual Root-Knot Nematicidal Activity. The class given is in vivo, Meloidogyne incognita. The following applies: read-out: Percent Control. In outline:
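Soil received 5% dust formulation at 5 and 10 ppm test compound and was held in a greenhouse, then infested with root-knot nematode eggs and larvae at 1, 2 and 4 weeks post-treatment. Cucumber or tomato seedlings were planted and scored about two weeks after infestation for Knot Index and Percent Control.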

Data set [6] deals with root-knot nematode. Put plainly: Systemic Activity (basipetal, foliar spray) against root-knot nematode. It is filed as in vivo, Meloidogyne incognita. The following applies: 336 h, read-out: Percent Control; for pest or weed control at 1250 ppm: Table 8, rate 1250 ppm; for pest or weed control at 2000 ppm: Table 8, rate 2000 ppm. Here is the method:
(§1) Compounds of this invention were tested as follows for nematicidal and anthelmintic activity as dust formulations (initial and residual activity) and as acetone/water formulations (systemic activity). The formulations are described above.
Compounds of the invention were tested for basipetal systemic activity against the root-knot nematode. In this test, tomato plants are grown in 10.2 cm diameter fiber pots containing steam-pasteurized soil mix (50%, soil, 50% sand) until 4-6 true leaves appear. Three of the pots are then placed on a turntable in a spray hood and the plants sprayed with 50 ml of water/acetone solution containing the test compound. The soil surface is covered during the spraying to prevent spraying of the soil. After treatment, the potted plants are placed in a lighted drying chamber. The plants are then grown in a growth chamber at 25° C. for three days and inoculated with a standard nematode culture by incorporating the inoculum into the top cm of soil in the pots. The plants are returned to the growth chamber for about two weeks at which time the pots are allowed to dry until the plants begin to wilt. The roots are shaken free of soil and the degree of galling (swelling) noted as compared to galling of untreated control plants. The results are expressed as Knot Index and Percent Control as defined in the initial root-knot nematode activity tests reported above in Table 2.

The test system of data set [7] is cyst nematode. As to the kind of experiment: Cyst Nematode Test. The following applies: Table 6; rate 5 ppm; read-out: Percent Control. It is filed as in vivo. Here is the method:
as §1
The procedures was substantially the same as described in the stunt nematode test except soybean seedlings were used. "Percent Control" (Table 6 appended) is as defined in the stunt nematode test results.

Data set [8] relates to Caenorhabditis elegans. Put plainly: C. Elegans Nematode Screening Test and Evaluation (in-vitro). The following applies: Caenorhabditis elegans. An outline of the steps: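 Worms (10-15 per well) in buffer with E. coli food, ampicillin and mycostatin; compound added in DMSO, 2-3 replicates per rate. Incubated 5-6 days at 20° C. Population development scored against untreated wells, noting effects such as reduced egg hatch or molting disruption.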

Data set [9] has as its system corn seedling. As to the kind of experiment: Phytotoxicity noted in Stunt Nematode Test. The class given is in vivo. On the set-up: key: *: Some phytotoxicity. Conditions: Table 4a; rate 5 ppm. From the text:
The procedure was substantially the same as in the initial root-knot nematode tests described above except that rates of application of formulated compound were 2.5 and 5 ppm in soil containing a corn seedling, with subsequent inoculation of the soil with combined larvae and adult stunt nematodes. The samples were evaulated approximately four weeks after infestation. The results (Tables 4 and 4a appended) indicate good control at the test application rates as compared with untreated samples where no control was observed. "Percent control" means the difference between average population counts between untreated and treated samples, divided by average population count of untreated sample, multiplied by 100.

[10] abbreviates: Table 7a, 5% dust, 5 ppm, BOTTOM container, read-out: Percent Control.
Setting [11] is: Table 7a, 5% dust, 5 ppm, MIDDLE container, read-out: Percent Control.
Where [12] appears, read: Table 7a, 5% dust, 5 ppm, TOP container, read-out: Percent Control.
Where [13] appears, read: 168 h, Table 3a, 5% dust, 5 ppm, inoculation 1 week post-treatment.
Setting [14] is: 336 h, Table 3a, 5% dust, 5 ppm, inoculation 2 weeks post-treatment.
The mark [15] stands for this setting: Table 9 screen, read-out: Percent Inhibition of Reproduction.
Setting [16] is: Table 9 screen, read-out: Percent Mortality.
The mark [17] stands for this setting: Table 2, Application Rate 0.312 ppm.
Setting [18] is: 672 h, Table 3a, 5% dust, 5 ppm, inoculation 4 weeks post-treatment.

Like-named read-outs stand apart in the source and are kept apart here.

A word on the inhibition: it is the change of the read-out against control, counted positive when it falls. The mortality is the share of the test organisms that died. `C=CCSc1nnc(SCCC(F)=C(F)F)s1` [Compound 31, 2-(2-propenylthio)-5-(3,4,4-trifluoro-3-butenylthio)-1,3,4-thiadiazole]: the pest or weed control at 5 ppm is 50% in data set [1] (setting [10]); 86% in [1] (setting [11]); 98% in data set [1] (setting [12]); 52% in data set [2]; 97% in data set [5] (setting [13]); 97% in data set [5] (setting [14]). The pest or weed control at 5 ppm in [5] (672 h) was 95%; in [7], 7%. The results for the pest or weed control at 2.5 ppm in [3] and in [4] were 11% and 99%, respectively. Moreover, the pest or weed control at 0.078 ppm in [4] was 0%. Besides, the pest or weed control at 0.156 ppm in data set [4] is 13%. Moreover, the pest or weed control at 0.625 ppm in [4] stood at 78%. In [4], the pest or weed control at 1.25 ppm was 96%. Also, the pest or weed control at 1250 ppm in data set [6] (foliar) was found to be 0%. Also, the pest or weed control at 2000 ppm in [6] (foliar) was determined as 71%. Moreover, in data set [8] (setting [15]), the inhibition at 5 ppm amounted to 38%. Further, in data set [8] (setting [16]), the mortality at 5 ppm was found to be 0%.
On to `O=[N+]([O-])c1ccc(CSc2nnc(SCCC(F)=C(F)F)s2)cc1` [Compound 35, 2-(4-nitrophenylmethylthio)-5-(3,4,4-trifluoro-3-butenylthio)-1,3,4-thiadiazole], for which the pest or weed control at 5 ppm came to 0% in data set [1] (setting [10]); 50% in [1] (setting [11]); 99% in data set [1] (setting [12]); 77% in [2]; 99% in data set [5] (setting [13]); 96% in [5] (setting [14]). Further, the values for the pest or weed control at 5 ppm in data set [5] (setting [18]) and in [7] were 84% and 0%, respectively. In addition, the pest or weed control at 0.078 ppm in [4] amounted to 0%. Also, the pest or weed control at 0.156 ppm in [4] is 6%. In data set [4] (setting [17]), the pest or weed control at 0.312 ppm came out at 67%. For the same molecule, the pest or weed control at 1.25 ppm in data set [4] came out at 98%. The pest or weed control at 2.5 ppm in data set [4] turned out to be 100%. In [6] (foliar), the pest or weed control at 2000 ppm came out at 0%. Moreover, the inhibition at 5 ppm in data set [8] (setting [15]) is 100%. Also, the mortality at 5 ppm turned out to be 100% in data set [8] (setting [16]) and 100% in data set [8] (Table 10 evaluation, read-out: Percent Mortality). Further, the inhibition at 1.25 ppm in data set [8] (Table 10 evaluation, 1.25 ppm, read-out: Percent Inhibition of Reproduction) came to 100%. In addition, in data set [8] (Table 10 evaluation, 1.25 ppm, read-out: Percent Mortality), the mortality at 1.25 ppm was determined as 100%. For the same molecule, the inhibition at 2.5 ppm in data set [8] (Table 10 evaluation, 2.5 ppm, read-out: Percent Inhibition of Reproduction) was found to be 100%. Moreover, the mortality at 2.5 ppm in data set [8] (Table 10 evaluation, 2.5 ppm, read-out: Percent Mortality) is 100%.
Turning to `FC(F)=C(F)CCSc1nnc(SCc2cccs2)s1` [Compound 36, 2-(2-thienylmethylthio)-5-(3,4,4-trifluoro-3-butenylthio)-1,3,4-thiadiazole], the pest or weed control at 5 ppm in data set [1] (setting [10]) was found to be 0%; in data set [1] (setting [12]) it was 97%; in [1] (read-out: Percent Control, Table 7a, 5% dust, 5 ppm, MIDDLE container) it was 17%; in [5] (setting [13]), 98%; in data set [5] (setting [14]), 99%; in [5] (672 h), 95%. Further, the pest or weed control at 5 ppm in data set [7] was 37%. The pest or weed control at 1.25 ppm in data set [3] (rate 1.25 ppm) came out at 2%; in data set [4], 99%. Further, the pest or weed control at 0.625 ppm in [3] (rate .625 ppm) worked out at 0%; in data set [4], 96%. Besides, the pest or weed control at 0.078 ppm in data set [4] was determined as 0%. Further, in data set [4], the pest or weed control at 0.156 ppm came out at 25%. Besides, the pest or weed control at 0.312 ppm in data set [4] (setting [17]) came out at 69%. Moreover, the pest or weed control at 2.5 ppm in data set [4] was 100%. In data set [6], the pest or weed control at 1250 ppm amounted to 17%. Further, the pest or weed control at 2000 ppm in data set [6] (foliar) was found to be 97%.
Regarding `FC(F)=C(F)CCSc1nnc(Cc2ccccc2F)o1` [Compound 44, 2-(2-fluorophenylmethyl)-5-(3,4,4-trifluoro-3-butenylthio)-1,3,4-oxadiazole], the pest or weed control at 5 ppm in data set [1] (setting [10]) turned out to be 96%; in [1] (setting [11]) it was 100%; in [1] (setting [12]) it was 100%; in [2] it was 75%; in [5] (setting [13]), 100%; in [5] (setting [14]), 100%. Further, the pest or weed control at 5 ppm turned out to be 100% in data set [5] (setting [18]) and 59% in data set [7]. In addition, the figures for the pest or weed control at 2.5 ppm in data set [3] and in data set [4] were 88% and 98%, respectively. In addition, in [4] (setting [17]), the pest or weed control at 0.312 ppm turned out to be 50%. For the same molecule, the pest or weed control at 0.625 ppm in data set [4] was 76%. Also, the pest or weed control at 1.25 ppm in data set [4] turned out to be 86%. The inhibition at 5 ppm in data set [8] (setting [15]) stood at 25%. Moreover, the mortality at 5 ppm in data set [8] (setting [16]) turned out to be 0%.
Take `FC(F)=C(F)CCSc1nnc(Cc2ccc(F)cc2)o1` [Compound 45, 2-(4-fluorophenylmethyl)-5-(3,4,4-trifluoro-3-butenylthio)-1,3,4-oxadiazole]: the pest or weed control at 5 ppm worked out at 83% in [1] (setting [10]); 97% in [1] (setting [11]); 98% in [1] (setting [12]); 80% in data set [2]; 99% in data set [5] (setting [13]); 100% in data set [5] (setting [14]). For the same molecule, the pest or weed control at 5 ppm in data set [5] (setting [18]) came to 98%. Further, the pest or weed control at 2.5 ppm in [3] came out at 41%; in data set [4] it was 99%. The pest or weed control at 0.625 ppm in [4] came out at 99%. The pest or weed control at 1.25 ppm in data set [4] stood at 99%. The pest or weed control at 0.312 ppm in [4] was found to be 95%. Also, in data set [9], the Some phytotoxicity result is recorded as “*”. For the same molecule, the inhibition at 5 ppm in data set [8] (setting [15]) was found to be 25%. The mortality at 5 ppm in data set [8] (setting [16]) was found to be 0%.
For `FC(F)=C(F)CCSc1nnc(Cc2ccc(F)cc2F)o1` [Compound 46, 2-(2,4-difluorophenylmethyl)-5-(3,4,4-trifluoro-3-butenylthio)-1,3,4-oxadiazole], the pest or weed control at 5 ppm worked out at 78% in data set [1] (setting [10]); 97% in data set [1] (setting [11]); 96% in data set [1] (setting [12]); 65% in [2]; 99% in data set [5] (setting [13]); 100% in data set [5] (setting [14]). Further, the pest or weed control at 5 ppm in data set [5] (setting [18]) is 99%. Moreover, the pest or weed control at 2.5 ppm in data set [3] is 77%; in data set [4] it was 99%. Besides, the pest or weed control at 0.312 ppm in data set [4] (setting [17]) was 85%. For the same molecule, the pest or weed control at 0.625 ppm in [4] worked out at 98%. In data set [4], the pest or weed control at 1.25 ppm was 98%. Also, the Some phytotoxicity result in data set [9] is “*”.
